Laboratory results published in patent publication US20240165056A1, “USE OF TAMOXIFEN AND RELATED COMPOUNDS TO REDUCE BREAST IMPLANT CAPSULE FORMATION AND CAPSULAR CONTRACTURE” (Ohio State Innovation Foundation, priority 2021, published 2024).

Columns and labels:
Assay type in all cases: in vivo, mice
[1] = Mouse body weight during tamoxifen treatment in silicone implant model; conditions: 75 mg/kg tamoxifen citrate i.p. daily
Protocol: (§1) Eight-week-old C57BL/6 or Beige (C57BL/6J-Lyst^bg-J/J) female mice (Jackson Labs, Bar Harbor, ME, USA) (N=10/group) were treated with daily tamoxifen or vehicle injections into the intraperitoneal cavity 1 week before surgery. Tamoxifen injections consisted of 75 mg/kg tamoxifen citrate (Sigma, St. Louis MO, USA) in peanut oil (Sigma, St Louis MO, USA) with 10% ethanol (Sigma, St. Louis MO, USA) to promote dissolution of tamoxifen, while control injections consisted of only peanut oil and ethanol. Daily injections continued until the day of explantation, two weeks after implantation.
(§2) Mice were anesthetized with a standard ketamine/xylazine cocktail. Fur was clipped and skin was prepped with betadine followed by alcohol pads. Silicone prostheses were implanted in the submammary plane, bilaterally, giving a total of 20 implants per experimental group (FIG. 1B). Skin incisions were re-approximated with 6-0 nylon suture (FIG. 1C).
(§3) After 2 weeks, mice were euthanized and the silicone prostheses were removed en bloc with all surrounding tissue, including the overlying skin for orientation (FIG. 1D). […] These samples were excluded from further analysis owing to the potential confounding nature of bacterial contamination on capsule formation.
(§4) All statistical analysis was performed in Prism 8.0 (GraphPad, San Diego, CA, USA). Data was evaluated for outliers using the Grubb's test. Control and tamoxifen-treated groups were compared with unpaired t-tests, except in cases where the equal variance assumption was violated; when the nonparametric Mann-Whitney test was utilized. A p-value of 0.05 was considered significant.

Ki-67 = experiment: Immunohistochemistry of implant capsule: Ki-67 cellular proliferation; conditions: 75 mg/kg i.p. daily; explant at 2 weeks
Protocol: as §1
(§5) Mice were anesthetized with a standard ketamine/xylazine cocktail. […]
(§6) Explanted silicone pieces and surrounding capsules were fixed overnight in formaldehyde at 4° C. and transitioned to 70% ethanol. […] Primary antibody binding was detected by subsequent incubation with species appropriate biotinylated IgG (Vector Laboratories, CA, USA), followed by streptavidin-horse radish peroxidase (Vector Laboratories, CA, USA) and chromogenic development with 3,3-diaminobenzidine (Vector Laboratories, CA, USA). […] Slides were imaged on a Zeiss Axio Observer Z1 inverted microscope (Zeiss, Germany) and quantified using ImageJ (NIH, USA). […]
(§7) All statistical analysis was performed in Prism 8.0 (GraphPad, San Diego, CA, USA). Data was evaluated for outliers using the Grubb's test. […]

CD163 = experiment: Immunohistochemistry of implant capsule: CD163 anti-inflammatory macrophages; conditions: 75 mg/kg i.p. daily; explant at 2 weeks
Protocol: as §1, §5, §6, §7

[2] = tested on: estrogen receptor β (ER-β); experiment: Immunohistochemistry of implant capsule: ER-β; conditions: 75 mg/kg i.p. daily; explant at 2 weeks
Protocol: as §1, §5, §6, §7

CD31 = experiment: Immunohistochemistry of implant capsule: CD31 neovascularization; conditions: 75 mg/kg i.p. daily; explant at 2 weeks
Protocol: as §1, §5, §6, §7

[3] = tested on: fibrous capsule around silicone implants; experiment: Silicone breast implant capsule formation in mouse model (H&E, Picro-Sirius Red histology)
Protocol: as §1, §2, §3
Explanted silicone pieces and surrounding capsules were fixed overnight in formaldehyde at 4° C. and transitioned to 70% ethanol. Samples were then paraffin embedded and sectioned at 4 μm. Samples were stained with H&E (FIG. 1E) or Picro-Sirius Red. Immunohistochemistry sections were deparaffinized, rehydrated and blocked for endogenous peroxidase activity (3% H2O2 in H2O) and nonspecific background staining (3% normal goat serum in Background Sniper, BioCare Medical, CA, USA). Antigen retrieval was performed with citrate buffer (pH 6.0) or Tris-EDTA (pH 9.0) in a pressure cooker for 10 minutes and slides were incubated for 30 minutes at room temperature with primary antibodies. Primary antibodies (all from Abcam, Cambridge, UK) included α-SMA (ab124964), CD31 (ab28364), CD68 (ab125212), iNOS (ab15323), CD163 (ab182422), Ki67 (ab15580), ER-α (ab271827), and ER-β (ab3576). Primary antibody binding was detected by subsequent incubation with species appropriate biotinylated IgG (Vector Laboratories, CA, USA), followed by streptavidin-horse radish peroxidase (Vector Laboratories, CA, USA) and chromogenic development with 3,3-diaminobenzidine (Vector Laboratories, CA, USA). Tissue sections were counterstained with Gill's hematoxylin (Vector Laboratories, CA, USA), slides were dehydrated and a cover slip was placed. Slides were imaged on a Zeiss Axio Observer Z1 inverted microscope (Zeiss, Germany) and quantified using ImageJ (NIH, USA).
Histology was quantified from H&E slides within the fibrous capsule on the side oriented with overlying skin to maintain consistency and remove potential variability by dissection at explantation.
as §4

[4] = tested on: Alpha smooth muscle actin (αSMA); experiment: Immunohistochemistry of implant capsule: αSMA myofibroblasts; conditions: 75 mg/kg i.p. daily; explant at 2 weeks
Protocol: as §1, §5, §6, §7

[5] = tested on: Estrogen receptor α (ER-α); experiment: Immunohistochemistry of implant capsule: ER-α; conditions: 75 mg/kg i.p. daily; explant at 2 weeks
Protocol: as §1, §5, §6, §7

CD68 = experiment: Immunohistochemistry of implant capsule: CD68 macrophage infiltration; conditions: 75 mg/kg i.p. daily; explant at 2 weeks
Protocol: as §1, §5, §6, §7

iNOS = experiment: Immunohistochemistry of implant capsule: iNOS pro-inflammatory macrophages; conditions: 75 mg/kg i.p. daily; explant at 2 weeks
Protocol: as §1, §5, §6, §7

[6] = Picro-Sirius Red, 75 mg/kg i.p. daily, explant at 2 weeks

With `CC/C(=C(\c1ccccc1)c1ccc(OCCN(C)C)cc1)c1ccccc1` [tamoxifen] the “body weight at the date of surgery” value ([1]; one week after start of injections) was 16.2±1.6 gram body weight, the “body weight at the start of the injection period” value ([1]; start of injections, 1 week before surgery) was 17.6±1.2 gram body weight and the “body weight at the two-week explant date” value ([1]; two weeks after implantation) was 16.6±1.0 gram body weight. The “Ki-67+ cells/mm” value (Ki-67) was 324±125 cells/mm, the “cellular fraction of Ki-67+ cells” value (Ki-67) was 62.4±16.9% and the “cellular fraction of CD163” value (CD163) was 29.1±8.4%. The “total number of cells with positivity for CD163” value (CD163) was 94.1±45.9 cells/mm, the “ER-β expression, cellular fraction” value [2] was 36.8±7.5% and the ER-β total cells/mm [2] was 106.2±69.2 cells/mm. The “CD31+ vessels per mm^2” value (CD31) was 106.3±51.8 vessels/mm^2, the “total CD31+ vessels” value (CD31) was 15.9±9.7 vessels/mm and the “cellularity of the capsules” value ([3]; 75 mg/kg i.p. daily, explant at 2 weeks) was 3624±608 cells/mm^2. For the same molecule, the capsule thickness ([3]; 75 mg/kg tamoxifen citrate i.p. daily, explant 2 weeks after implantation) was 132±49 μm, the “area percent of collagen” value [3, 6] was 36.2±3.1% and the “total collagen surrounding the implants” value [3, 6] was 43598±10044 μm^2. For the same molecule, the “reduction in capsule thickness” value ([3]; tamoxifen-treated vs control, explant at 2 weeks) was 59%, the “linear density of αSMA+ cells” value [4] was 295±121 cells/mm and the “percentage of total cells αSMA+” value [4] was 47.9±9.5%. For the same molecule, the “ER-α expression as a fraction of total cells” value [5] was 31.0±6.3%, the “ER-α total cells/mm of capsular tissue” value [5] was 107.0±39.8 cells/mm and the “cellular fraction of CD68” value (CD68) was 55.9±16.0%. The “linear density of CD68+ cells” value (CD68) was 303.3±136.5 cells/mm, the “cellular fraction of iNOS” value (iNOS) was 60.6±12.6% and the “total number of cells with positivity for iNOS” value (iNOS) was 290.6±104.2 cells/mm.
